Measured values as given in BigSolDB 2.1.
Where a SMILES comes first, the peptide text is derived from it. [ ]: non-standard residue; d: D form. pGlu = O=C1CC[C@@H](C(=O)O)N1; Thz = O=C(O)[C@@H]1CSCN1

O=C1CC[C@@H](C(=O)N2CSC[C@H]2C(=O)O)N1 ([pGlu]-[Thz]-OH)
solubility (mole fraction)
Conditions	278.15 K	283.15 K	288.15 K	293.15 K	298.15 K	303.15 K	308.15 K	313.15 K	318.15 K	323.15 K
in DMF	0.00535	0.00604	0.00734	0.00953	0.0123	0.0151	0.0182	0.0214	0.0253	0.0291
in acetone	3.1e-05	5e-05	8.5e-05	0.000121	0.000176	0.000249	0.000354	0.000522	0.000693	0.000925
in acetonitrile	0.000297	0.000336	0.000426	0.00052	0.000691	0.000855	0.00107	0.00132	0.00159	0.00195
in benzyl alcohol	0.00226	0.00262	0.00307	0.00374	0.00452	0.00553	0.00661	0.00806	0.0101	0.0128
in ethanol	8.3e-05	0.000128	0.000198	0.000303	0.00045	0.000679	0.000986	0.00144	0.00208	0.00292
in isopropanol	9.1e-05	0.000138	0.000209	0.000307	0.000454	0.000663	0.000945	0.00136	0.0019	0.00265
in methanol	0.00121	0.00137	0.00157	0.00184	0.00216	0.00257	0.00305	0.00365	0.00437	0.00528
in n-butanol	0.000227	0.000282	0.000354	0.000439	0.000566	0.00072	0.000908	0.0012	0.00151	0.00197
in water	0.00163	0.00181	0.00205	0.00234	0.0027	0.00313	0.00368	0.00434	0.00509	0.00604
